Results from patent US9725490B2, “ERAP1-derived peptide and use thereof” (TOKUSHIMA UNIVERSITY, priority 2011, dated 2017).

Assays:
Format in all cases: cell-based, human
MCF-7 cells [1] = assay: Cell cycle FACS analysis, MCF-7; conditions: 10 μM ERAP1-peptide and/or 10 nM tamoxifen, 10 nM E2 24 hours
Experimental: FIG. 6-2 is a diagram illustrating that ERAP1-peptide treatment suppresses ERα-dependent cell proliferation of breast cancer cell lines. […] MCF-7 cells were treated with 10 μM ERAP1-peptide or 10 μM tamoxifen. Then, immediately, the cells were stimulated with 10 nM E2 for 24 hours. After the immobilization, the cells were stained with propidium iodide, and analyzed by flow cytometry.
FIG. 19 is a diagram illustrating the results of FACS analysis showing the effects of concomitant use of the ERAP1-peptide and tamoxifen on the cell cycle.
The cells were fixed with cold 70% ethanol, and stained with 20 μg/ml propidium iodide (Sigma) and 1 mg/ml ribonuclease A (Sigma), and analyzed with FACSCalibur (B D, Franklin Lakes, N.J., USA). The cell cycle was evaluated using CellQuest software (BD).
MCF-7 cells were treated with 10 μM ERAP1-peptide and/or 10 nM tamoxifen. Then, immediately, the cells were stimulated with 10 nM E2 for 24 hours. After the immobilization, the cells were stained with propidium iodide, and analyzed by flow cytometry.

ERAP1 expression = assay: ERAP1 expression, quantitative RT-PCR and Western, MCF-7; conditions: tamoxifen, 10 nM E2 24 hours
ERE reporter activity = assay: ERE-luciferase assay of tamoxifen with ERAP1 knockdown; conditions: 10 μM tamoxifen, 96 hours, 1 μM E2
Experimental: (§1) FIG. 17 is a diagram illustrating the influence of ERAP1 knockdown on the suppression effect on proliferation of breast cancer cells by tamoxifen.
In addition, the inhibition effect of tamoxifen when ERAP1 was knocked down by siRNA method was evaluated with ERE-luciferase assay. MCF-7 cells were seeded in 2×10^4/well on a 96-well plate, and were temporarily transfected with ERE-luciferase reporter. Then, the cells were stimulated with 1 μM E2, and after 24 hours, treated with si-ERAP1 or si-control. After 24 hours, the cells were treated with 10 μM tamoxifen and after 96 hours, ERE luciferase activity was measured.

[2] = tested on: Akt, MAPK and ERα phosphorylation; assay: Phosphorylation of Akt, MAPK and ERα in tamoxifen-resistant MCF-7 cells; conditions: Tam-R MCF-7, tamoxifen alone or tamoxifen and E2
Experimental: FIG. 14 is a diagram illustrating the suppression effect of the ERAP1-peptide on tamoxifen-resistant MCF-7 cells. […] The tamoxifen-resistant MCF-7 cells were treated with the ERAP1-peptide in each concentration (0, 5 and 10 μM). Then, immediately, the cells were stimulated with 10 nM E2 for 24 hours.
MCF-7 cells and tamoxifen-resistant MCF-7 cells were seeded in 1×10^5/well in DMEM/F12 culture medium containing phenol red on a 24-well plate and stood in a CO2 incubator for 24 hours. Then, the culture medium was exchanged with DMEM/F12 culture medium containing 10% FBS, 1% penicillin/streptomycin and 1 μM tamoxifen, and not containing phenol red, and the cells were further pre-cultured for 24 hours. The supernatant was removed, and then 180 μl of […] ERAP1-peptide was added (final concentration: 10 μM), and subsequently 20 μl of 100 nM E2 was added (final concentration: 10 nM), and the mixture was reacted for 24 hours. The reaction solution was removed, and then 100 μl of SDS-sample buffer was added and the cells were lysed. The cells were subjected to boiling treatment at 95° C. for 5 minutes, and subjected to polyacrylic amide electrophoresis. Phosphorylations of Akt and MAPK were detected with anti-phosphorylation Akt (Ser473) (587F11) and anti-phosphorylation p44/42 MAP Kinase (Thr202/Tyr204) antibodies, and phosphorylation of ERα was detected with anti-phosphorylation ERα (Ser104/106), anti-phosphorylation ERα (Ser118), anti-phosphorylation ERα (Ser167), anti-phosphorylation ERα (Ser305) and anti-phosphorylation ERα (Tyr537) antibodies.

MCF-7 cells [3] = assay: MTT assay of tamoxifen with ERAP1 knockdown; conditions: 10 μM tamoxifen, 96 hours, 1 μM E2
Experimental: as §1
The inhibition effect of tamoxifen when ERAP1 was knocked down by siRNA method was evaluated with MTT assay. The sequences of si-ERAP1, and si-control (si-EGFP) and the method for the experiment were in accordance with the report of Kim et, al. (Cancer Science, 2009, 100; 1468-78) MCF-7 cells were seeded in […] on a 48-well plate, and stimulated with 1 μM E2, and after 24 hours, treated with si-ERAP1 or si-control. After 24 hours, the cells were treated with 10 μM tamoxifen and the number of living cells was evaluated with MTT assay after 96 hours.

## CC/C(=C(\c1ccccc1)c1ccc(OCCN(C)C)cc1)c1ccccc1 [tamoxifen, reference compound]
MCF-7 cells [1]
  cell cycle: increase of cells having stopped in the G1 phase
ERAP1 expression
  expression of ERAP1, mRNA level and protein level: suppressed depending on the concentration of TAM
ERE reporter activity
  ERE reporter activity, siERAP1 versus si-control: the reporter activity was suppressed more
[2]
  phosphorylations of Akt and MAPK: accelerated phosphorylations of Akt and MAPK
MCF-7 cells [3]
  cell proliferation, siERAP1 versus si-control: the cell proliferation was suppressed more
